Marks after values point to notes of the source that are not given here.
What was measured:
rats [1] = test: gastrointestinal motility in rats, charcoal meal test; assay type: in vivo, rat; details: for effect on gastrointestinal motility in the rat: charcoal meal test; for % CHANGE FROM VEHICLE-TREATED ANIMALS / GROUP MEAN DISTANCE TRAVELLED BY CHARCOAL AS % OF TOTAL GUT LENGTH ± SD: rat, oral
From the text: Thus, the distance travelled by the charcoal meal in each Compound (I)-treated group was similar to the vehicle-treated group at each tested dose.

[2] = system: guinea-pig isolated colon; test: stretch-induced reflex activity in guinea-pig isolated colon; details: 250 nM applied for 30-45 min; 6, 12 or 20 g weights; greater at higher distension
From the text: For reflex studies, 5-7 cm lengths of colon were suspended in warmed, oxygenated physiological saline, so that an 8 mm metal bar could be inserted into the lumen and connected, via a thread passing through the intestinal wall, to a pulley system which allowed different weights to pull on the bar and distend the intestine. Force transducers were attached to the wall of the colon via small wire hooks, 5 mm either side of the distending bar. Colonic wall distension using 6, 12 or 20 g weights evoked rhythmic contractions oral to the distension and a small relaxation on the anal side. Application of 12 and 20 g weights evoked similar patterns of activity and although the small relaxation on the anal side of the distension seemed more apparent, the oral excitatory response was not different from the effects of the 6 g weight.

[3] = system: guinea-pig enteric neurones; test: slow EPSP in guinea-pig enteric neurones; assay type: cell-based; details: 0.1 microM
Description: The slowEPSP was elicited by high frequency (20 Hz) electrical stimulation for 1 s, applied to a circumferential internodal strand connecting to the ganglion. […] It was perfused continuously and the slowEPSP was tested at various intervals. In all four neurons there was a decrease of peak amplitude of depolarisation of over 50% when compared with baseline, once the drug had circulated for at least 30 minutes.

rats [4] = test: small intestinal transit in normal, non-sensitised animals; assay type: in vivo, rat; details: 15 mg/kg po
rats [5] = test: egg-albumin sensitized increase in rat small intestinal transit; assay type: in vivo; details: pre-treatment 15 mg/kg po
rats [6] = test: rat gastric emptying, phenol red method; assay type: in vivo; details: for % GASTRIC EMPTYING: rat, oral
conscious rats = test: colo-rectal distension in conscious rats (intestinal nociception); assay type: in vivo, rat
rat NK-3 receptor = target: T1, rat NK-3 receptor (Rattus norvegicus, UniProt P16177); test: affinity for the rat NK-3 receptor; assay type: binding; details: relative to its higher affinity for the human or guinea-pig variants
T1 sequence (P16177 1-452): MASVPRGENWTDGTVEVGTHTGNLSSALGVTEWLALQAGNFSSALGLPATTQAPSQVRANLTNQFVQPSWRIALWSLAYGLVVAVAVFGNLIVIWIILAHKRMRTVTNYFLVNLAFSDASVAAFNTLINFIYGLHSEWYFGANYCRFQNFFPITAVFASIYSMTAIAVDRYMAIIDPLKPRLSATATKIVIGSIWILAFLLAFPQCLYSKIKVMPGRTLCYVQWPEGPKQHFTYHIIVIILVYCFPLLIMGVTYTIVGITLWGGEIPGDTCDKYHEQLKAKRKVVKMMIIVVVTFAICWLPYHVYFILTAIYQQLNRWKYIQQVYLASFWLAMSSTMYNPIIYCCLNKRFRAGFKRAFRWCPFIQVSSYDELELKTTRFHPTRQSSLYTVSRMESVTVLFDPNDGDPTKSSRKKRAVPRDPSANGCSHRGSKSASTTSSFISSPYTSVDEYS

## CC[C@H](NC(=O)c1c(O)c(-c2ccccc2)nc2ccccc12)c1ccccc1 [Compound (I), (S)-N-(α-ethylbenzyl)-3-hydroxy-2-phenylquinoline-4-carboxamide]
Rats [1]; oral, 5, 15 and 50 mg/kg
  effect on gastrointestinal motility in the rat: no marked or statistically significant effect
Rats [1]; 5 mg/kg
  % CHANGE FROM VEHICLE-TREATED ANIMALS: −11.5%
  GROUP MEAN DISTANCE TRAVELLED BY CHARCOAL AS % OF TOTAL GUT LENGTH ± SD: 46.9 ± 5.3%
Rats [1]; 15 mg/kg
  % CHANGE FROM VEHICLE-TREATED ANIMALS: −1.7%
  GROUP MEAN DISTANCE TRAVELLED BY CHARCOAL AS % OF TOTAL GUT LENGTH ± SD: 52.1 ± 7.1%
Rats [1]; 50 mg/kg
  % CHANGE FROM VEHICLE-TREATED ANIMALS: −4.9%
  GROUP MEAN DISTANCE TRAVELLED BY CHARCOAL AS % OF TOTAL GUT LENGTH ± SD: 50.4 ± 8.6%
[2]
  effect on reflexes evoked by colonic wall distension: reduced the effects of distension
[3]; circulated at least 30 minutes, all four neurons
  decrease of peak amplitude of depolarisation of slowEPSP compared with baseline: over 50%
[3]; one neuron
  blockade of slowEPSP: 100%
[3]; the other three neurons
  blockade of slowEPSP based on the amplitude of depolarisation: 60-80%
Rats [4]
  effect on small intestinal transit: did not significantly affect
Rats [5]
  effect on increased transit after egg-albumin sensitisation: greatly inhibited
Rats [6]; oral doses of 5, 15 and 50 mg/kg
  effect on rat gastric emptying: no marked or statistically significant effects
Rats [6]; 5 mg/kg
  % GASTRIC EMPTYING: 55.2%
Rats [6]; 15 mg/kg
  % GASTRIC EMPTYING: 50.7%
Rats [6]; 50 mg/kg
  % GASTRIC EMPTYING: 62.4%
Conscious rats; 10 mg/kg po
  antinociceptive effect during colo-rectal distension: without anti-nociceptive activity
Conscious rats; 30 mg/kg po
  antinociceptive effect during colo-rectal distension: statistically significant only at the highest distension pressure
Conscious rats; 50 mg/kg po
  effect on colo-rectal tone: without affecting colo-rectal tone
Conscious rats; 50 mg/kg po, 30, 45 and 60 mmHg distension pressures
  antinociceptive effect during colo-rectal distension: significant antinociceptive effect
Rat NK-3 receptor
  affinity for the rat NK-3 receptor: low affinity

## CN1CC[C@]23c4c5ccc(O)c4O[C@H]2[C@@H](O)C=C[C@H]3[C@H]1C5.O=S(=O)(O)O [Morphine sulfate, reference compound]
Rats [1]; oral dose of 10 mg/kg
  effect on gastrointestinal motility in the rat: marked and statistically significant decrease
Rats [1]; 10 mg/kg
  % CHANGE FROM VEHICLE-TREATED ANIMALS: −29.4%
  GROUP MEAN DISTANCE TRAVELLED BY CHARCOAL AS % OF TOTAL GUT LENGTH ± SD: 37.4 ± 12.4%
Rats [6]; orally at 20 mg/kg
  effect on rat gastric emptying: marked and statistically significant decrease
Rats [6]; 20 mg/kg
  % GASTRIC EMPTYING: 30.8** %

— patent US20040152727A1, “Novel use” (priority 2001, published 2004)
